Assay [1] concerns the target MAP kinase-activated protein kinase 2 (Homo sapiens) (UniProt P49137). The assay can be described thus: Inhibition of MAPKAP-K2 at 1 uM.
In assay [2] the target is T1, Tyrosine-protein kinase ITK/TSK (Homo sapiens) (UniProt Q08881).
T1 sequence (whole entry): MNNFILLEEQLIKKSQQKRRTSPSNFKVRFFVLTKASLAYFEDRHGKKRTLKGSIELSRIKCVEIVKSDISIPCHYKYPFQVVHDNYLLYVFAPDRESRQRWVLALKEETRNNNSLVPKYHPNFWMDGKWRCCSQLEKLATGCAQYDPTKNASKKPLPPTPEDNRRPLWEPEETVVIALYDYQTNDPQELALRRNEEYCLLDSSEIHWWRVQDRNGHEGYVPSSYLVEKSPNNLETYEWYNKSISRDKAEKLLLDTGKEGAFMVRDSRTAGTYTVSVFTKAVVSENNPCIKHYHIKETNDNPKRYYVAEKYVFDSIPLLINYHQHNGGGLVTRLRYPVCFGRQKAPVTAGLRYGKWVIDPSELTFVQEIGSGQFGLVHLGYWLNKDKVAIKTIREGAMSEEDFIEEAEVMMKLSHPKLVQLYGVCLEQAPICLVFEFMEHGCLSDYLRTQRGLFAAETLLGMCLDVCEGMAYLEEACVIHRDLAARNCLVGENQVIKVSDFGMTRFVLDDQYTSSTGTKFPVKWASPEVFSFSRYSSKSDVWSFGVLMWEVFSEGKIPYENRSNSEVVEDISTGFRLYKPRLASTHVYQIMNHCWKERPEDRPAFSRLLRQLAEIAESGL
The assay can be described thus: Inhibition of Itk at 1 uM; values are per cent of control.

Assay [3] concerns the target T2, Mitogen-activated protein kinase 12 (Homo sapiens) (UniProt P53778).
T2 sequence (whole entry): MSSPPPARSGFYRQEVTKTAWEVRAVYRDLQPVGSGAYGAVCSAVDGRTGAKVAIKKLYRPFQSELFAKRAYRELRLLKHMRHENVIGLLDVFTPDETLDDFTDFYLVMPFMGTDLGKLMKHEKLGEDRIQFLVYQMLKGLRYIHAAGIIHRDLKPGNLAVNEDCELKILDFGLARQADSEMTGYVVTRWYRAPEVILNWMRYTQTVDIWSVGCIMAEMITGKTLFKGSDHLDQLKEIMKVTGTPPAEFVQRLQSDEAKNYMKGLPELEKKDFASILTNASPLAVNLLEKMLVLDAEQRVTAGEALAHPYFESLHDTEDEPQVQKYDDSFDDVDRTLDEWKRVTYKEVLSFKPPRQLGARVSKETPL
The assay can be described thus: Inhibition of SAPK3 at 1 uM.

For assay [4], the target named is Ephrin type-A receptor 2 (Homo sapiens) (UniProt P29317). The experiment in a line: Inhibition of EphA2 at 0.1 uM; values are per cent of control.
Assay [5] concerns the target T3, cGMP-dependent protein kinase 1 (Homo sapiens) (UniProt Q13976).
T3 sequence (whole entry): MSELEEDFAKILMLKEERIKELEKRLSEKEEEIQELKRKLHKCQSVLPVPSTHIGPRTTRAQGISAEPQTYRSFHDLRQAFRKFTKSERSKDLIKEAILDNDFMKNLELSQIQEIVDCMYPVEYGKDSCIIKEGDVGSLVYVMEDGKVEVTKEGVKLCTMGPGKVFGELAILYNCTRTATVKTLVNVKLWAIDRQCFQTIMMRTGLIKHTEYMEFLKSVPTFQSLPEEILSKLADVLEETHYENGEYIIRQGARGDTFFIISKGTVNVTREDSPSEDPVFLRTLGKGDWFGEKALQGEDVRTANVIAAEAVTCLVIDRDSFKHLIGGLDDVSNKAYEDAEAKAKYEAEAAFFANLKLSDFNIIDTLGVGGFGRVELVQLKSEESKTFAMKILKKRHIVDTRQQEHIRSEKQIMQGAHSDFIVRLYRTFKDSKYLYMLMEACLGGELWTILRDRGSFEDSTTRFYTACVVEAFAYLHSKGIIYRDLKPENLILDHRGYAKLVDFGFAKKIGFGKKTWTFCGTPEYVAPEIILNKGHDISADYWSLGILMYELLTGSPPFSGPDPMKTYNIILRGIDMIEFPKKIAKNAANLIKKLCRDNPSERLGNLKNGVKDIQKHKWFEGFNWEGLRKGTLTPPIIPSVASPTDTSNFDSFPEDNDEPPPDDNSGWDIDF
The experiment in a line: Inhibition of PKG1beta at 0.1 uM; values are per cent of control.

Assay [6] deals with T4, Ephrin type-B receptor 1 (Homo sapiens) (UniProt P54762).
T4 sequence (whole entry): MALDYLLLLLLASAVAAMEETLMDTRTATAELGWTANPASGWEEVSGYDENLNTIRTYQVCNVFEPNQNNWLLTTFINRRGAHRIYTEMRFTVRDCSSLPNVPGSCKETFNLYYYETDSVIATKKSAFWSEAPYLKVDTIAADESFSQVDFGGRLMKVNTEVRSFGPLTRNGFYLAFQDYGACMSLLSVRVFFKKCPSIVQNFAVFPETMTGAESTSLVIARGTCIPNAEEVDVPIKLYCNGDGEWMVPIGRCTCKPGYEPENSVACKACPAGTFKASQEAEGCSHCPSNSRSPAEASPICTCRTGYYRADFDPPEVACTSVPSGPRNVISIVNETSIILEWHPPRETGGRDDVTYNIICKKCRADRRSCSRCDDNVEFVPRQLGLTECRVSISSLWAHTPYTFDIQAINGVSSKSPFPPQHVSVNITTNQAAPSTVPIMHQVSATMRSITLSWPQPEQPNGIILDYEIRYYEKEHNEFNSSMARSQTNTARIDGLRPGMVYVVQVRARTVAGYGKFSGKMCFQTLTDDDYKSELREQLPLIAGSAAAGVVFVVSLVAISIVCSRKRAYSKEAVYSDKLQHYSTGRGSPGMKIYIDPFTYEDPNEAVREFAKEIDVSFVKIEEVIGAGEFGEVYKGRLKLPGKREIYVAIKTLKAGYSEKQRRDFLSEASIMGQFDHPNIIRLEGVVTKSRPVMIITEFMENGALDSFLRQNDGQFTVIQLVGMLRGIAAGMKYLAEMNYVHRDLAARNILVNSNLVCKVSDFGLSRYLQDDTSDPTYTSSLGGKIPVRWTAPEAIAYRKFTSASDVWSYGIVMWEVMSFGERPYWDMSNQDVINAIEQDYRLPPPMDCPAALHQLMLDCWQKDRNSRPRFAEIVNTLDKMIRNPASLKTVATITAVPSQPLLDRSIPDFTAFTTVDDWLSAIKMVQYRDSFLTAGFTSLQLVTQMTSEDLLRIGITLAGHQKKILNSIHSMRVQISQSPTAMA
The assay can be described thus: Inhibition of EphB1 at 0.1 uM; values are per cent of control.

Assay [7] has as its target Glycogen synthase kinase-3 beta (Homo sapiens) (UniProt P49841). The experiment in a line: Inhibition of GSK3-beta at 1 uM; values are per cent of control.

Usually inhibition stands for how much of the control response was suppressed. Higher therefore signals strong suppression. By residual activity is commonly meant what remains of the control signal, in per cent. The low end stands for a large loss of activity, the high end for a small loss of activity.

Chain of MAP kinase-activated protein kinase 2 (Homo sapiens) (P49137 whole entry, looked up): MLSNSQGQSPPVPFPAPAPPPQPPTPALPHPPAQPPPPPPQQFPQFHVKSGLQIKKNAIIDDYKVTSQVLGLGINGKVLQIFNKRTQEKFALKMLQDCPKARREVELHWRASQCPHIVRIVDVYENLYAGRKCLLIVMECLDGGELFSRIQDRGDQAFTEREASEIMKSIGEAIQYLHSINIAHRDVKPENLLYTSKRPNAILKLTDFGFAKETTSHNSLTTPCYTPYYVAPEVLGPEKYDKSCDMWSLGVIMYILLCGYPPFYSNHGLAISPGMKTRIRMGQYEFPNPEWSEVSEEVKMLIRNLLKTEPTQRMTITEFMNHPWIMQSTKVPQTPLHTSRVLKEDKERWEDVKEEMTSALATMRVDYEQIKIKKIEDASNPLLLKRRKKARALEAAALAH
Chain of Glycogen synthase kinase-3 beta (Homo sapiens) (P49841 whole entry, looked up): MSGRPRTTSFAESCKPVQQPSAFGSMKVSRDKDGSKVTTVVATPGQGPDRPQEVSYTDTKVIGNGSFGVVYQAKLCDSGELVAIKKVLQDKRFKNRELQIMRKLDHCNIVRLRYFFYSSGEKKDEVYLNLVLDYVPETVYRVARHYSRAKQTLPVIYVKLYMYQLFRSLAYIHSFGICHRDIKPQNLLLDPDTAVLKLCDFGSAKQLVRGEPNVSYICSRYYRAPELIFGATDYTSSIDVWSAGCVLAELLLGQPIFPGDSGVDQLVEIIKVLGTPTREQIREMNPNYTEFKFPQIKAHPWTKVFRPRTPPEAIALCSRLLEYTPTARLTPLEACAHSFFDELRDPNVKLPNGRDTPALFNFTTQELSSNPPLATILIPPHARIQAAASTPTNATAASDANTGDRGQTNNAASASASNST
Chain of Ephrin type-A receptor 2 (Homo sapiens) (P29317 whole entry): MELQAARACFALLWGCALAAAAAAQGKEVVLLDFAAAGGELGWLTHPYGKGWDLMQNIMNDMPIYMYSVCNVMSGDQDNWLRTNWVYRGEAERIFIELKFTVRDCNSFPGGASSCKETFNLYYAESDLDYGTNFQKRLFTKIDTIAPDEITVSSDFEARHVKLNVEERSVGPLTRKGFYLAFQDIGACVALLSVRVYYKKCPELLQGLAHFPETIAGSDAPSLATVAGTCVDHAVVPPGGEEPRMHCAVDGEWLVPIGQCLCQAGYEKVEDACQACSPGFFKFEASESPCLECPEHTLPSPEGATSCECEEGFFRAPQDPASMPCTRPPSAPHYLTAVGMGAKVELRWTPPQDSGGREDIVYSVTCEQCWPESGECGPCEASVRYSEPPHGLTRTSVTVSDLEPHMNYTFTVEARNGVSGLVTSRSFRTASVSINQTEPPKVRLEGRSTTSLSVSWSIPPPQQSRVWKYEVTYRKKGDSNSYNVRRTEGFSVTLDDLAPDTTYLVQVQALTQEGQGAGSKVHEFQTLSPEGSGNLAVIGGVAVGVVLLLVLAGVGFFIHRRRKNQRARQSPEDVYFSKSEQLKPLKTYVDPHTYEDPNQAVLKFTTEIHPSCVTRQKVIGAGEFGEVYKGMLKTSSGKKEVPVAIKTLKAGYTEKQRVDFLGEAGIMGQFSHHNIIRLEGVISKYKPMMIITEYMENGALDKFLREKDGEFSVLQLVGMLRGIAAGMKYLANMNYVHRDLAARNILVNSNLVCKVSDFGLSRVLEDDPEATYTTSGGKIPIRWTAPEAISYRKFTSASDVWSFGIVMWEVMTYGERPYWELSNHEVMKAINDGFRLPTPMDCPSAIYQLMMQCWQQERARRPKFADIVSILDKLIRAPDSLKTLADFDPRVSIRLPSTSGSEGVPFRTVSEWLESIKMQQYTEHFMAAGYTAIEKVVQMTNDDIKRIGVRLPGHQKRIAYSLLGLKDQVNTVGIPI

As for `Cc1ccc2cc(-c3n[nH]c4ccc(NC5CCNC5)cc34)[nH]c2c1` (centres undefined), the results for the inhibition in assay [1] and in assay [3] were 48% and 82%, respectively. Also, the residual activity is 2% in assay [2]; 47% in assay [4]; 95% in assay [5]; 29% in assay [6]; 69% in assay [7].

Regarding `Cc1ccc2cc(-c3n[nH]c4ccc(NC5CCN(Cc6ccccc6)CC5)cc34)[nH]c2c1`, the inhibition in assay [1] was determined as 93%; in assay [3] it was 95%. Also, the residual activity turned out to be 7% in assay [2]; 25% in assay [4]; 83% in assay [5]; 73% in assay [6]; 95% in assay [7].

The values above are taken from ChEMBL document CHEMBL1681705, “Optimisation of ITK inhibitors through successive iterative design cycles” (Bioorg Med Chem Lett, 2011).
